Source: patent publication US7807201B2, “Antifungal agent comprising natural plant extracts” (Binex Co., Ltd., priority 2007, dated 2010)

Tested on: Saprolegnia parasitica
Assay: Antifungal effect at different concentrations by 24-well plate method (MIC)
Assay type: cell-based
Details: for Antifungal effect: water mould Saprolegnia parasitica on GY agar
From the text: Water moulds were taken from the body surface of rainbow trout. The water moulds were isolated and subcultured using GY medium (broth) containing 10 g/L of glucose and 2.5 g/L of yeast extract and GY medium (agar) containing 10 g/L of glucose, 2.5 g/L of yeast extract and 7.5 g/L of agar. The pathogenic water moulds were isolated and identified as Saprolegnia parasitica (Gene Bank Data homology search result: 99%) through ITS-5.8S rDNA sequencing at the Korean Culture Center of Microorganisms (KCCM) of the Korean Federation of Culture Collections (KFCC). The natural product sweet flag extract was compared with malachite green. Antifungal effect and minimal inhibitory concentration (MIC) were tested by the 24-well plate method and the diffusion method.
GY agar was placed on a sterilized 24-well plate. […] Hyphae of Saprolegnia parasitica, which had been cultured in GY agar plate, taken with a 50 mL syringe were added to each plate and antifungal activity test was carried out for 72 hours. Photographs were taken every 24 hours.
GY agar was placed on a sterilized 24-well plate. After waiting until the medium was dry, each 100 μL of 20 ppm, 2 ppm and 0.2 ppm malachite green (MG) was added to the GY medium (control), in the same manner as in FIG. 1. Hyphae of Saprolegnia parasitica, which had been cultured in GY agar plate, taken with a 50 mL syringe were added to each plate and antifungal activity test was carried out for 72 hours. Photographs were taken every 24 hours.

CN(C)c1ccc(C(=C2C=CC(=[N+](C)C)C=C2)c2ccccc2)cc1 [MG, malachite green]
Antifungal effect (0.2 ppm): + | Antifungal effect (2 ppm): ++ | Antifungal effect (20 ppm): +++ | MIC (Saprolegnia parasitica, read-out: MIC (minimal inhibitory concentration)): 2 mg/L
